Test results: paper PMC7725459 (Science Advances, 2020)

What was measured:
SARS-CoV-2 HM-M^pro = SARS-CoV-2 HM-M^pro (Severe acute respiratory syndrome coronavirus 2, UniProt P0DTD1); format: binding
SARS-CoV-2 M^pro [1] = biological target: T1, SARS-CoV-2 M^pro (Severe acute respiratory syndrome coronavirus 2, UniProt P0DTD1); experiment: Binding to SARS-CoV-2 M^pro using native mass spectrometry; settings: 10 μM ligand, 4 mM DTT
SARS-CoV-2 M^pro [2] = biological target: T1, SARS-CoV-2 M^pro; format: biochemical; settings: versus GC-376

CC(C)C[C@H](NC(=O)OCc1ccccc1)C(=O)N[C@@H](CC(C)C)C(=O)N[C@@H](CC1CCNC1=O)C(=O)C(=O)NC1CC1 (stereo partly drawn) [UAWJ248]
ΔTm shift, HM-M^pro construct (SARS-CoV-2 HM-M^pro): 10.01 °C | binding to M^pro by native mass spectrometry (SARS-CoV-2 M^pro [1]): confirmed | fold more potent than GC-376 (k2/KI) (SARS-CoV-2 M^pro [2]): 3.2 fold
